Reference: patent US7740831B2, “Compositions for potentiating glutathione” (Fancl Corporation, priority 2001, dated 2010)

Legend:
[1] = system: CCD 1059 normal human skin fibroblasts; experiment: Effect of combined use of S-containing compound (cystine) on intracellular glutathione; type: cell-based; settings: compound 10 μg/ml, control = cystine only
Procedure: CCD 1059 normal human skin fibroblasts (1.5×10^5 cells) (manufactured by Dainippon Pharmaceutical Co., Ltd.) were inoculated in a petri dish (manufactured by Nunc) with a diameter of 6 cm, and the cells were cultured in Dulbecco's modified Eagle's medium (DMEM) containing 10% deactivated fetal bovine serum (hereafter abbreviated to “FBS”) for 3 days at 37° C. in the presence of 5% carbon dioxide gas. When the cells were 80% confluent, the medium was exchanged with DMEM containing 0.5% fetal bovine serum (hereafter abbreviated to “FBS” in some cases). […] Then, the absorbance at 405 nm was measured, and this was taken as the glutathione concentration.
However, since it was desired to add an S-containing compound at an arbitrary concentration, the culture medium used in the case of this addition was DMEM that contains no S-containing compound (i.e., a medium that was free of methionine, cysteine, and cystine). […] A comparison was made by calculation from the ratio relative to respective control groups in which only cystine was added (groups in which only cystine was added were taken as control groups, and the activities of the respective test substance groups were evaluated as ratios relative to the control groups with the activities of the respective control groups taken as 1).

[2] = system: B16 melanoma cells; experiment: Skin whitening test (melanin suppression); type: cell-based, mouse; settings: 3 days; for Melanin suppression rate (compound): 20 μg/ml; for Melanin suppression rate (positive control): 3 mM
Procedure: Melanin suppressing activity was measured by the following test using the extracts of Lamium album, Euphrasia officinalis, Plantago psyllium, Plantago psyllium seeds, Olea europaea, Forsythia suspensa, Conandron ramondioides Siebold et Zucc, Osmanthus fragrans, Osmanthus asiaticus, Syringa vulgaris, Verbena officinalis L., and Momordica charantia L., and hydrolysates thereof obtained in Example 1, DPE obtained in Examples 3 and 4, and the DPE glycosides obtained in Example 5.
Cultured B16 melanoma cells derived from mouse provided as melanin producing cells were cultured in a minimum basic culture medium (MEM) to which FBS was added so as to have a final concentration of 10%. At a concentration of 3×10^3 cell/ml, those cells were inoculated in a 6-well plate (6 ml in each well), and were cultured in a CO2 incubator for 5 days, after which the culture medium was exchanged. […] Then, after further culturing for 3 days under the same conditions, the cells were washed and stripped by a scraper treatment. The cells were then solubilized with sodium dodecylsulfate (SDS), and the absorbance values at 475 nm and 260 nm were measured (these values were taken as S475 and S260). The melanin suppression rate was calculated using the following Equation 1, with the absorbance values at 475 nm and 260 nm obtained for cells cultured in a culture medium to which no test substances were added taken as C475 and C260, respectively. 3 mM vitamin C and 3 mM kojic acid were used as positive controls. As is shown in Tables 7 and 8, the production of melanin is suppressed by the addition of the test substances, so that the test substances show a skin whitening effect.

[3] = system: CCD 1059 normal human skin fibroblasts; experiment: Resistance to active oxygen (singlet oxygen, rose bengal) cell damage after glutathione potentiation; type: cell-based; settings: compound 20 μg/ml, 24 h preincubation then removed; singlet oxygen exposure; untreated control 28
Procedure: Then, preincubation was performed for 24 hours at 37° C., so that the intracellular glutathione concentration was increased. […] The present test was performed in order to evaluate whether it was possible to alleviate the effects of the active oxygen that was generated by increasing the intracellular glutathione concentration, so that the plants, hydrolysates thereof, DPE, and DPE glycosides discovered by the present invention were completely removed after the preincubation.
After the cells were washed, rose bengal (which is a singlet oxygen generating agent) was dissolved in Hanks solution so as to have a final concentration of 50 μM, and was added to the cells. The cells were then irradiated for 10 minutes with visible light, so that the cells were exposed to singlet oxygen. The time for which the cells were immersed in Hanks solution and the time for which the cells were exposed to visible light were the same for all of the groups. After the exposure, the cells were again washed with Hanks solution, and the culture medium was exchanged with DMEM containing 10% FBS. After 3 days, the cells were counted by means of a Coulter counter, and the numbers of living cells were compared. In this comparison, an evaluation was performed with the number of cells in a non-exposed group that was not exposed to singlet oxygen taken as 100%. It is seen from Table 6 that the survival rates of the respective groups exposed to singlet oxygen were improved (compared to a group that was not treated with any test substance (control)) by the addition of the above-mentioned plant extracts, hydrolysates thereof, DPE, and DPE glycosides.

[4] = system: CCD 1059 normal human skin fibroblasts; experiment: Measurement of glutathione activity (intracellular glutathione, method of Baker et al.); type: cell-based; settings: 24 hours
Procedure: The cells were then collected after being cultured for 24 hours. […] The collected cells were disrupted using sonication, and proteins were removed using metaphosphoric acid. Then, the solutions were again neutralized, to thereby produce samples used for glutathione measurement. The measurement of glutathione was performed using the method of Baker et al. (Anal. […] Then, the absorbance at 405 nm was measured, and this was taken as the glutathione concentration.

[5] = system: Clone 9 human liver cells; experiment: Effect on liver cell (intracellular glutathione); settings: compound 10 μg/ml, 24 hours
Procedure: Clone 9 human liver cells (8×10^6 cells) (manufactured by Dainippon Pharmaceutical Co., Ltd.) were inoculated in a petri dish (manufactured by Nunc) with a diameter of 6 cm, and the cells were cultured in DMEM containing 10% deactivated FBS for 3 days at 37° C. in the presence of 5% carbon dioxide gas. When the cells were 80% confluent, the medium was exchanged with DMEM containing 0.5% FBS. After the cells were naturalized for 24 hours, the culture medium was removed by suction and exchanged with fresh DMEM containing 0.5% FBS, and the test substances were dissolved in ethanol. […] 24 hours after the addition, the cells were collected, and glutathione measurements were performed by the method described in Example 5.

[6] = system: CCD 1059 normal human skin fibroblasts; experiment: Effect of combined use of S-containing compound (cysteine) on intracellular glutathione; type: cell-based; settings: compound 2.5 μg/ml, control = cysteine only
Procedure: CCD 1059 normal human skin fibroblasts (1.5×10^5 cells) (manufactured by Dainippon Pharmaceutical Co., Ltd.) were inoculated in a petri dish (manufactured by Nunc) with a diameter of 6 cm, and the cells were cultured in Dulbecco's modified Eagle's medium (DMEM) containing 10% deactivated fetal bovine serum (hereafter abbreviated to “FBS”) for 3 days at 37° C. in the presence of 5% carbon dioxide gas. When the cells were 80% confluent, the medium was exchanged with DMEM containing 0.5% fetal bovine serum (hereafter abbreviated to “FBS” in some cases). After the cells were naturalized for 24 hours, the culture medium was removed by suction and exchanged with fresh DMEM containing 0.5% FBS and the test substances were dissolved in ethanol. […] The cells were then collected after being cultured for 24 hours. […] The collected cells were disrupted using sonication, and proteins were removed using metaphosphoric acid. Then, the solutions were again neutralized, to thereby produce samples used for glutathione measurement. […] To describe the method briefly, reduced nicotinamide adenine dinucleotide phosphate (NADPH), glutathione reductase, and 5,5′-dithiobis(2-nitrobenzoic acid) (DNTB) provided as a coloring agent were added to a 2-(N-morpholino)ethanesulfonate buffer (MES buffer), and the mixture was reacted with each measurement sample or a standard substance used to produce a calibration curve. Then, the absorbance at 405 nm was measured, and this was taken as the glutathione concentration.
However, since it was desired to add an S-containing compound at an arbitrary concentration, the culture medium used in the case of this addition was DMEM that contains no S-containing compound (i.e., a medium that was free of methionine, cysteine, or cystine). […] A comparison was made by calculation from the ratio relative to respective control groups in which only cysteine was added in the same amounts (groups in which only cysteine was added were taken as control groups in which the respective final concentrations of cysteine were 200 and 400 μM, and the activities of the respective test substance groups were evaluated as ratios relative to the control groups with the activities of the respective control groups taken as 1).

[7] = system: cystine transporter (xCT); experiment: Cystine transporter (xCT) production ability by Western blotting; type: cell-based, human; settings: compound 20 μg/ml, 24 hours
Source text: When the cells were 80% confluent, the medium was exchanged with DMEM containing 0.5% FBS.

[8] = system: rats; experiment: Long-term oral administration to rats (toxicity); type: in vivo; settings: 100 days, 1,000 mg/kg per day
Source text: DPE or a glycoside thereof has a low toxicity.

[9] = system: gamma-glutamyl cysteine synthetase mRNA; experiment: γ-glutamylcysteine synthetase production promoting activity by RT-PCR; type: cell-based, human; settings: compound 20 μg/ml, 8 hours
Procedure: After 8 hours, total RNA was collected by using TRIZOL reagent (Life Technologies Oriental, Inc.) following a protocol.
Gamma-glutamyl cysteine synthetase mRNA and G3PDH mRNA expression promoting activities were measured with RT-PCR high (Toyobo Co., Ltd.) using the collected total RNA. The G3PDH gene is known as a housekeeping gene and expresses in all cells constantly, so that the gene is widely used as a control gene. The following primers were used for PCR: 5′-TGA AAC TCT GCA AGA GAA GOG G-3′ (SEQ ID NO: 1) and 5′-GCT TCA TCT GGA AAG AGO AGG G -3′ (SEQ ID NO: 2) (gamma-glutamyl cysteine synthetase); and 5′-ACCACAGTCCATGCCATCAC-3′ (SEQ ID NO: 3) and 5′-TCCACCACCCTGTTGCTGTA-3′ (SEQ ID NO: 4) (G3PDH). […] Then, the intensity of staining was measured using image analysis software ImageMaster 1D (manufactured by Amersham Pharmacia Biotech Co.). The group in which no test substances were added (1% ethanol) was taken as a control, and the amount of expression was evaluated by a comparison of the amounts of expression in cases where test substances were added (with a value obtained by dividing the staining intensity of the γ-glutamylcysteine synthetase mRNA by the staining intensity of G3PDH taken as 1). […]

| Compound | Combined effect with cystine, ratio to control, cystine 200 μM added group [1] | Melanin suppression rate (compound) [2] | Survival rate (%: based on non-exposed group) [3] | Glutathione enhancing activity (compound), ratio to control ([4]; 2.5 μg/ml) | Glutathione enhancing activity (compound), ratio to control ([4]; 5 μg/ml) | Glutathione enhancing activity (compound), ratio to control ([4]; 10 μg/ml) | Glutathione enhancing activity (compound), ratio to control ([4]; 20 μg/ml) | Effect on hepatocyte (glutathione), ratio to control [5] | Combined effect with cysteine, ratio to control, cysteine 200 μM added group [6] | Combined effect with cysteine, ratio to control, cysteine 400 μM added group [6] | Amount of xCT expression (Relative to control) [7] | Mortality [8] | Gamma-glutamyl cysteine synthetase/G3PDH (Relative to control) [9] | Melanin suppression rate (positive control) [2] |
| --- | --- | --- | --- | --- | --- | --- | --- | --- | --- | --- | --- | --- | --- | --- |
| OCCc1ccc(O)c(O)c1 [DPE, 2-(3,4-dihydroxyphenyl)ethanol] | 3.42 | 52.3% | 61% | 1.36 | 1.85 | 2.33 | 2.74 | 1.16 | 1.25 | 1.89 | 4.8 | no cases of mortality | 8.2 |  |
| OC[C@H]1O[C@@H](OCCc2ccc(O)c(O)c2)[C@H](O)[C@@H](O)[C@@H]1O [DPE-1-O-β-D-Glucopyranocide, 2-(3,4-dihydroxyphenyl)ethanol-1-O-β-D-glucopyranocide] |  | 24.6% | 42% |  |  |  |  |  |  |  |  |  |  |  |
| OCCc1ccc(O)c(O[C@@H]2O[C@H](CO)[C@@H](O)[C@H](O)[C@H]2O)c1 [DPE-3′-O-β-D-Glucopyranocide, 2-(3,4-dihydroxyphenyl)ethanol-3′-O-β-D-glucopyranocide] | 1.56 | 32.3% | 46% | 1.15 | 1.19 | 1.25 | 1.73 | 1.26 | 1.26 | 1.52 | 1.3 |  | 3.8 |  |
| OCCc1ccc(O[C@@H]2O[C@H](CO)[C@@H](O)[C@H](O)[C@H]2O)c(O)c1 [DPE-4′-O-β-D-Glucopyranocide, 2-(3,4-dihydroxyphenyl)ethanol-4′-O-β-D-glucopyranocide] |  | 35.4% | 37% |  |  |  |  |  |  |  |  |  |  |  |
| O=c1cc(CO)occ1O [Kojic acid, reference compound] |  |  |  |  |  |  |  |  |  |  |  |  |  | 39.9% |
| O=C1O[C@H]([C@@H](O)CO)C(O)=C1O [Vitamin C, reference compound] |  |  |  |  |  |  |  |  |  |  |  |  |  | 23.0% |
